According to US12583818B2 (DAEGU-GYEONGBUK MEDICAL INNOVATION FOUNDATION, priority 2020, dated 2026):
Like-named read-outs stand apart in the source and are kept apart here.

Assays:
[1] = tested on: A2780-SP cells (ovarian cancer stem cells); assay: Sphere cell viability of A2780-SP cells (Cell-titer Glo); assay type: cell-based
Summary of the method: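 A2780-SP ovarian cancer stem cells grown as spheres in ultra-low-attachment wells (1,500 cells/well) in neurobasal stem-cell medium with bFGF, EGF, B27. Compound added the day after plating, re-dosed on day 4, 8-day culture total; viability by CellTiter-Glo luminescence.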

[2] = target: T1, Pin1 (Homo sapiens, UniProt Q13526); assay: Evaluation of Pin1 enzyme inhibitory activity (Sensolyte Green Pin1 assay kit); assay type: biochemical
T1 construct: purchased Anaspec
Summary of the method: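 Pin1 activity was measured with a fluorogenic kit assay (Sensolyte Green) using substrate prepared at 1 μM and protein at 50 μg/ml, both pre-mix concentrations. Compound working solutions were 100, 10, 1 or 0.1 μM, and reactions ran 2 h at room temperature in the dark, read at 490/520 nm. Inhibition was graded A–D by concentration.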

[3] = tested on: A2780 cells (ovarian cancer cells); assay: Cell viability of A2780 cells (Cell-titer Glo); assay type: cell-based; conditions: Homo sapiens
Summary of the method: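 A2780 ovarian cancer cells seeded at 3000 viable cells/well in RPMI-1640 with 10% FBS, dosed the next day and grown 3 days. Viability measured by Cell-titer Glo luminescence.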

[4] = tested on: MDA-MB 231 triple negative breast cancer cell line; assay: MDA-MB 231 protein expression inhibition (Western blotting, cycline D1 vs Vinculin); assay type: cell-based; conditions: Homo sapiens, compound 10 μM, 72 hours, cycline D1 Western blot, read-out: MBA-MB-231 (amount of the protein compared to the DMSO-treated control group)
Procedure: In order to confirm the ability of the compound represented by formula 1 according to the present invention to inhibit the protein expression of MDA-MB 231 triple negative breast cancer cell line, the following experiment was performed, and the results are shown in Table 3 below.
MDA-MB-231 cells were cultured in a 5% CO2 incubator at 37° C. using RPMI medium supplemented with 10% FBS and 1% penicillin/streptomycin.
The cells were washed with PBS once a day, and then replaced with a new medium. The cells grown at the density of at least 90% 1 day before the experiment were detached using trypsin/EDTA, and then plated at the density of 100,000 per well in a 6-well plate.
On the next day of culture, the compound prepared in each example was treated at a concentration of 10 μM, and DMSO was treated at a concentration of 0.1% of the total as the control, followed by incubation for 72 hours. After 72 hours, the cells were washed twice with PBS, collected by scraping, and centrifuged at 13,000 rpm for 3 minutes to remove all the supernatant and only cells were taken.
RIPA buffer (containing 1× protease inhibitor and phosphatase inhibitor) was added to the prepared cells (80 μl/well), and the plate was shaken once every 5 minutes to disrupt the cells for a total of 15 minutes. The disrupted cells were centrifuged at 13,000 rpm for 15 minutes to collect only the supernatant protein. The obtained protein was quantified using a BCA protein quantification kit (Pierece, MA, USA), and a total of 10 μg of the protein was used for Western blotting.
The protein sample was isolated by 10% SDS-PAGE, and transferred to a PVDF membrane. Anti-human cycline D1 antibody (Cell signal) and anti-Vinculin antibody were bound to the protein sample, and the expression of the protein was measured by using an ECL reagent and LAS4000 equipment. The measurement results were quantified and generalized using ImageJ. The results are shown in Table 3 below by dividing the grades A to D according to the amount of the protein compared to the DMSO-treated control group.

[5] = tested on: MCF7-SP cells (breast cancer stem cells); assay: Sphere cell viability of MCF7-SP cells (Cell-titer Glo); assay type: cell-based
Procedure: (§1) In order to confirm the inhibitory effect of the compound represented by formula 1 according to the present invention on the growth of MCF7, MCF7-SP, A2780 or A2780-SP cells, the following experiment was performed, and the results are shown in Tables 4 and 5 below.
On the other hand, MCF7-SP cells (breast cancer stem cells) were plated in an Ultra-Low Attachment round bottom 96-well plate (corning) at the density of 1,500 viable cells per well, and cultured in cancer stem cell medium. The cancer stem cell medium is composed of the neurobasal medium supplemented with 20 ng/ml of bFGF, 10 ng/ml of EGF, 2.5 […], HEPES, Glutamax and B27.
On the next day of culture, the cells were treated with the compound of Example 71, 76, 80, 84, 92, 99, 100 or 119, followed by culture for 8 days. The medium containing the compound was added thereto once again on the 4th day. Sphere cell viability was evaluated by Cell-titer Glo (Promega, WC, USA), and luciferase activity was detected using a Tecan plate reader (Biocompare, USA).

[6] = tested on: MCF7 cells (breast cancer cells); assay: Cell viability of MCF7 cells (Cell-titer Glo); assay type: cell-based; conditions: Homo sapiens
Procedure: as §1
MCF7 cells (breast cancer cells) were plated in a 96-well plate at the density of 3000 viable cells per well, and cultured in DMEM/High glucose medium supplemented with 10% FBS and 1% penicillin/streptomycin.
On the next day of culture, the cells were treated with the compound of Example 71, 76, 80, 84, 92, 99, 100 or 119, followed by culture for 3 days. Cell viability was evaluated by Cell-titer Glo (Promega, WC, USA), and luciferase activity was detected using a Tecan plate reader (Biocompare, USA).

[7] = 192 h, sphere cell viability, culture for 8 days, read-out: A2780-SP
[8] = Table 5, read-out: the concentration (second list of b710, cell line not named; matches A2780-SP column)
[9] = Table 2, read-out: concentration at which Pin1 inhibitory activity was exhibited
[10] = concentration at which the Pin1 enzyme activity is inhibited, 2 hours at room temperature, fluorescence 490 nm/520 nm, read-out: Pin 1 inhibition
[11] = 72 h, cell viability, culture for 3 days, read-out: A2780
[12] = A2780, Table 5, read-out: A2780 cell concentration
[13] = 192 h, sphere cell viability, culture for 8 days, read-out: MCF7-SP
[14] = 72 h, cell viability, culture for 3 days, read-out: MCF7
[15] = MCF7, text summary of Table 4, read-out: MCF7 cell concentration

T1 sequence (Q13526 whole entry): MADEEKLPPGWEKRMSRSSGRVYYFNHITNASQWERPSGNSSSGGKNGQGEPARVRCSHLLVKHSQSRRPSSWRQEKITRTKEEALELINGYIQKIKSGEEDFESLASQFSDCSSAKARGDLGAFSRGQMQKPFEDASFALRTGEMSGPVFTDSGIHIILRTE

Row | Structure (SMILES) | IC50 [1, 7] | IC50 [1, 8] | IC50 [2, 9] | IC50 [2, 10] | IC50 [3, 11] | IC50 [3, 12] | activity at 10 µM [4] | IC50 [5, 13] | IC50 ([5]; text summary of Table 4, read-out: MCF7-SP cell concentration) | IC50 [6, 14] | IC50 [6, 15]
1 | O=S(=O)(NCCCc1c[nH]c2ccc(F)cc12)c1ccc(OCCCN2CCNCC2)cc1 [Example 61, N-(3-(5-fluoro-1H-indol-3-yl)propyl)-4-(3-(piperazin-1-yl)propoxy)benzenesulfonamide] | < 1000 nM | < 1000 nM | < 1000 nM | < 1000 nM | 1000 to 10000 nM | < 10000 nM | 0 to 35% |  |  |  | 
2 | CN1CCN(CCCOc2ccc(S(=O)(=O)NCCCc3c[nH]c4ccc(Cl)cc34)cc2)CC1 [Example 66, N-(3-(5-chloro-1H-indol-3-yl)propyl)-4-(3-(4-methylpiperazin-1-yl)propoxy)benzenesulfonamide] | < 1000 nM | < 1000 nM | < 1000 nM | < 1000 nM | 1000 to 10000 nM | < 10000 nM | 0 to 35% |  |  |  | 
3 | O=S(=O)(NCCCc1c[nH]c2ccc(Cl)cc12)c1ccc(OCCCN2CCNCC2)cc1 [Example 70, N-(3-(5-chloro-1H-indol-3-yl)propyl)-4-(3-(piperazin-1-yl)propoxy)benzenesulfonamide] | < 1000 nM | < 1000 nM | < 1000 nM | < 1000 nM | 1000 to 10000 nM | < 10000 nM | 0 to 35% | 1000 to 10000 nM | < 10000 nM | 1000 to 10000 nM | < 10000 nM
4 | O=S(=O)(NCCCc1c[nH]c2ccc(Cl)cc12)c1ccc(OCCCN2CCC(O)CC2)cc1 [Example 75, N-(3-(5-chloro-1H-indol-3-yl)propyl)-4-(3-(4-hydroxypiperidin-1-yl)propoxy)benzenesulfonamide] | 1000 to 10000 nM |  | < 1000 nM | < 1000 nM | 1000 to 10000 nM | < 10000 nM | 0 to 35% | > 10000 nM |  | 1000 to 10000 nM | < 10000 nM
5 | CNC1CN(CCCOc2ccc(S(=O)(=O)NCCCc3c[nH]c4ccc(Cl)cc34)cc2)C1 [Example 77, N-(3-(5-chloro-1H-indole-3-yl)propyl)-4-(3-(3-(methylamino)azetidine-1-yl)propoxy)benzenesulfonamide] | 1000 to 10000 nM |  | < 1000 nM | < 1000 nM | > 10000 nM |  | 0 to 35% |  |  |  | 
6 | O=S(=O)(NCCCc1c[nH]c2ccc(Cl)cc12)c1ccc(NCCCC2CCNCC2)cc1 [Example 88, N-(3-(5-chloro-1H-indole-3-yl)propyl)-4-((3-(piperidine-4-yl)propyl)amino)benzenesulfonamide] | < 1000 nM | < 1000 nM | < 1000 nM | < 1000 nM | > 10000 nM |  | 50 to 70% |  |  |  | 
7 | O=S(=O)(NCCCc1c[nH]c2ccc(Cl)cc12)c1ccc(CCCCN2CCCCC2)cc1 [Example 90, N-(3-(5-chloro-1H-indole-3-yl)propyl)-4-(4-(piperidine-1-yl)butyl)benzenesulfonamide] | < 1000 nM | < 1000 nM | < 1000 nM | < 1000 nM | > 10000 nM |  | 35 to 50% |  |  |  | 
8 | CN1CCC(CCCOc2ccc(S(=O)(=O)NCCCc3c[nH]c4ccc(Cl)cc34)cc2)CC1 [Example 92, N-(3-(5-chloro-1H-indole-3-yl)propyl)-4-(3-(1-methylpiperidine-4-yl)propoxy)benzenesulfonamide] | < 1000 nM | < 1000 nM | < 1000 nM | < 1000 nM | > 10000 nM |  | 0 to 35% |  |  |  | 
9 | O=S(=O)(NCCCc1c[nH]c2ccc(Cl)cc12)c1ccc(OCCCC2CCNCC2)cc1 [Example 93, N-(3-(5-chloro-1H-indole-3-yl)propyl)-4-(3-(piperidine-4-yl)propoxy)benzenesulfonamide] | < 1000 nM | < 1000 nM | < 1000 nM | < 1000 nM | 1000 to 10000 nM | < 10000 nM | 0 to 35% |  |  |  | 
10 | CN1CCN(CCCOc2ccc(S(=O)(=O)NCCCc3c[nH]c4ccc(Cl)cc34)cc2F)CC1 [Example 103, N-(3-(5-chloro-1H-indole-3-yl)propyl)-3-fluoro-4-(3-(4-methylpiperazine-1-yl)propoxy)benzenesulfonamide] | < 1000 nM | < 1000 nM | < 1000 nM | < 1000 nM | > 10000 nM |  | 35 to 50% |  |  |  | 
11 | O=S(=O)(NCCCc1c[nH]c2ccc(Cl)cc12)c1ccc(OCCCN2CCNCC2)c(F)c1 [Example 104, N-(3-(5-chloro-1H-indol-3-yl)propyl)-3-fluoro-4-(3-(piperazin-1-yl)propoxy)benzenesulfonamide] | < 1000 nM | < 1000 nM | < 1000 nM | < 1000 nM | > 10000 nM |  | 70 to 100% |  |  |  | 
12 | O=S(=O)(NCCCc1c[nH]c2ccc(Cl)cc12)c1ccc(OCCCN2CCC(O)CC2)c(F)c1 [Example 105, N-(3-(5-chloro-1H-indol-3-yl)propyl)-3-fluoro-4-(3-(4-hydroxypiperidin-1-yl)propoxy)benzenesulfonamide] | < 1000 nM | < 1000 nM | < 1000 nM | < 1000 nM | > 10000 nM |  | 70 to 100% |  |  |  | 
13 | O=S(=O)(NCCCc1c[nH]c2ccc(Cl)cc12)c1ccc(OCCCN2CCCNCC2)c(F)c1 [Example 106, 4-(3-(1,4-diazepan-1-yl)propoxy)-N-(3-(5-chloro-1H-indol-3-yl)propyl)-3-fluorobenzenesulfonamide] | < 1000 nM | < 1000 nM | < 1000 nM | < 1000 nM | 1000 to 10000 nM | < 10000 nM | 50 to 70% |  |  |  | 
14 | O=S(=O)(NCCCc1c[nH]c2ccc(Cl)cc12)c1ccc(Oc2cccc(N3CCNCC3)c2)cc1 [Example 121, N-(3-(5-chloro-1H-indol-3-yl)propyl)-4-(3-(piperazin-1-yl)phenoxy)benzenesulfonamide] | < 1000 nM | < 1000 nM | < 1000 nM | < 1000 nM | 1000 to 10000 nM | < 10000 nM | 0 to 35% |  |  |  | 
15 | CN1CCN(c2cccc(Nc3ccc(S(=O)(=O)NCCCc4c[nH]c5ccc(Cl)cc45)cc3)c2)CC1 [Example 123, N-(3-(5-chloro-1H-indole-3-yl)propyl)-4-((3-(4-methylpiperazine-1-yl)phenyl)amino)benzenesulfonamide] | 1000 to 10000 nM |  | < 1000 nM | < 1000 nM | 1000 to 10000 nM | < 10000 nM | 70 to 100% |  |  |  | 
